Assays:
Assay type in all cases: biochemical
[1] = molecular target: T1, CDK2/cyclin A (Homo sapiens, UniProt P24941); assay: Inhibition of CDK2/Cyclin A Retinoblastoma Kinase Activity; settings: apparent Ki
T1 construct: made in house; host or cells: CDK2: insect cells (baculovirus); cyclin A: E. coli
Summary of the method: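 Baculovirus-expressed CDK2 complexed with proteolyzed cyclin A, at 150 nM or 5 nM, phosphorylating an Rb fragment with 25 µM [32/33P]ATP in HEPES pH 7.4, 2% DMSO. Reactions run 20 min at 30°C, EDTA-stopped, filter-captured; apparent Ki from competitive or tight-binding competitive fits.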

[2] = molecular target: CDK4/cyclin D3 (Homo sapiens, UniProt P11802); assay: Inhibition of CDK4/Cyclin D Retinoblastoma Kinase Activity; settings: apparent Ki
Summary of the method: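 Human CDK4/cyclin D3 (full-length or cyclin D3 1–264), insect-cell expressed, at 5 or 50 nM with His-tagged Rb 386–928 substrate, 25 μM ATP plus [32P/33P]ATP, pH 7.4, 2% DMSO, 30 °C for 20 min; tight binders used 5 nM enzyme for 60 min. Filter-captured phospho-Rb quantified by phosphorimager. Apparent Ki from competitive or tight-binding inhibition fits.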

[3] = molecular target: T2, FGFR1 tyrosine kinase (Homo sapiens, UniProt P11362, C488A/C584S/L457V); assay: Inhibition of phosphorylated FGF receptor tyrosine kinase activity; settings: for inhibition at 1 µM: read-out: FGF % Inhib. at 1 μM
T2 construct: the cytosolic domain of FGFR1 tyrosine kinase (amino acids 456–766); made in house; host or cells: Sf9 insect cells (baculovirus)
Summary of the method: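 Phosphorylated Sf9-expressed kinases, FGFR1 (aa 456–766) at 100 nM and LCK (aa 223–509) at 50 nM, with 100 μM ATP and poly(Glu,Tyr) 4:1 at 5.1 (FGFR) or 25 mM (LCK), pH 7.5, 37° C. Pyruvate kinase/LDH-coupled NADH loss read at 340 nm under initial-rate conditions; % inhibition versus 2% DMSO control.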

T2 sequence (P11362 456-766 L457V/C488A/C584S): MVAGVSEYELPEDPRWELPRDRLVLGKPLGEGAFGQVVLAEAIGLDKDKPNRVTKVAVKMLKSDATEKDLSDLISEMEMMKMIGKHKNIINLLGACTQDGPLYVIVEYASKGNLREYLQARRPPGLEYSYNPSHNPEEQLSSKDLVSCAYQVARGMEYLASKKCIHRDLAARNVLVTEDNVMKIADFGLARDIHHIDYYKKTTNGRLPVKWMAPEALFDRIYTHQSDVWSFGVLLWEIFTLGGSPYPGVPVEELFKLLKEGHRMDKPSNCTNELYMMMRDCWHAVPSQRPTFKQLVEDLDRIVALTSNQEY
Sequence of CDK4/cyclin D3 (P11802 2-303 limits assumed): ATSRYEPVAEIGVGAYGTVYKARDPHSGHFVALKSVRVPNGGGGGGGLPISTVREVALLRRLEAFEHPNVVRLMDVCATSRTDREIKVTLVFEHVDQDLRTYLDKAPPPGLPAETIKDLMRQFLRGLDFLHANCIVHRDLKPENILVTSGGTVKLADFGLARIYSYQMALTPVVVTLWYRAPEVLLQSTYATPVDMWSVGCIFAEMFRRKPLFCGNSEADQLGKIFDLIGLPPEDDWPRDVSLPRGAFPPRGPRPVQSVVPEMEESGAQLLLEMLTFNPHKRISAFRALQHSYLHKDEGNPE
Sequence of CDK4/cyclin D3 (P30281 1-264 limits assumed, further chain): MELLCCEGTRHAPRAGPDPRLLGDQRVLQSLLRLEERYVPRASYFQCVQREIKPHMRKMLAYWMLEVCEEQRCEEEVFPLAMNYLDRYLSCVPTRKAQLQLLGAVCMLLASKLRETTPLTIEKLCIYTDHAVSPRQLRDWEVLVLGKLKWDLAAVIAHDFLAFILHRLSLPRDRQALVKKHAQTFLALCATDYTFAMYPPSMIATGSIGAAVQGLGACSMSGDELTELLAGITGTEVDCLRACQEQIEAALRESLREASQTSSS

| SMILES | Ki [1] [nM] | Ki [2] [nM] | inhibition at 1 µM [3] [%] | Ki [3] [nM] |
| --- | --- | --- | --- | --- |
| CCc1cncc(-c2ccc3[nH]nc(/C=C/c4ccccc4)c3c2)c1Cl [Example 46, 5-(4-Chloro-5-ethyl-pyridin-3-yl)-3-(E)-styryl-1H-indazole] | 28 | 30 | 50.5 |  |
| CS(=O)(=O)Nc1ccc2nc(-c3n[nH]c4ccc(-c5cncc6ccccc56)cc34)[nH]c2c1 [Example 70, N-[2-(5-Isoquinolin-4-yl-1H-indazol-3-yl)-3H-benzoimidazol-5-yl]-methanesulfonamide] | 0.23 | 1.8 | 63 |  |
| CCNCc1cncc(-c2ccc3[nH]nc(-c4nc5ccccc5[nH]4)c3c2)c1C [Example 74, {5-[3-(1H-Benzoimidazol-2-yl)-1H-indazol-5-yl]-4-methyl-pyridin-3-ylmethyl}-ethyl-amine] | 1.6 | 0.52 | 82.6 |  |
| Cc1c(CN(C)C)cncc1-c1ccc2[nH]nc(-c3nc4ccccc4[nH]3)c2c1 [Example 73, {5-[3-(1H-Benzoimidazol-2-yl)-1H-indazol-5-yl]-4-methyl-pyridin-3-ylmethyl}-dimethyl-amine] | 2.7 | 6.9 | 42.9 |  |
| CCN(CC)Cc1cccc2[nH]c(-c3n[nH]c4ccc(-c5cncc6ccccc56)cc34)nc12 [Example 36, Diethyl-[2-(5-isoquinolin-4-yl-1H-indazol-3-yl)-1H-benzoimidazol-4-ylmethyl]-amine] | 1 | 2.3 | 55.8 |  |
| c1ccc2[nH]c(-c3n[nH]c4ccc(-c5cncc6c5CCCN6)cc34)nc2c1 [Example 54] | 0.27 | 26 | 81.5 |  |
| CC(C)NCc1cccc2[nH]c(-c3n[nH]c4ccc(-c5cncc6ccccc56)cc34)nc12 [Example 38, Isopropyl-[2-(5-isoquinolin-4-yl-1H-indazol-3-yl)-1H-benzoimidazol-4-ylmethyl]-amine] | 1 | 0.798 | 42.4 |  |
| c1ccc2[nH]c(-c3n[nH]c4ccc(-c5cccc6[nH]ccc56)cc34)nc2c1 [Example 48, 3-(1H-Benzoimidazol-2-yl)-5-(1H-indol-4-yl)-1H-indazole] | 55 | 21 | 68.5 |  |
| Cc1c(-c2ccncc2)cncc1-c1ccc2[nH]nc(-c3nc4ccc(NS(C)(=O)=O)cc4[nH]3)c2c1 [Example 71, N-{2-[5-(4-methyl-[3,4′]bipyridinyl-5-yl)-1H-indazol-3-yl)-3H-benzoimidazol-5-yl]-methanesulfonamide] | 1 | 0.85 | 28.8 |  |
| CN(C)Cc1cccc2[nH]c(-c3n[nH]c4ccc(-c5cncc6ccccc56)cc34)nc12 [Example 31, [2-(5-Isoquinolin-4-yl-1H-indazol-3-yl)-1H-benzoimidazol-4-ylmethyl]-dimethyl-amine] | 0.21 | 0.37 | 55.5 |  |
| CCNCc1cccc2[nH]c(-c3n[nH]c4ccc(-c5cncc6ccccc56)cc34)nc12 [Example 37, Ethyl-[2-(5-isoquinolin-4-yl-1H-indazol-3-yl)-1H-benzoimidazol-4-ylmethyl]-amine] | 0.22 | 0.76 | 34.4 |  |
| Cc1c(-c2ccncc2)cncc1-c1ccc2[nH]nc(-c3nc4ccccc4[nH]3)c2c1 [Example 53, 5-[3-(1H-Benzoimidazol-2-yl)-1H-indazol-5-yl]-4-methyl-[3,4′]bipyridinyl] | 0.29 | 2.6 | 32 |  |
| Fc1ccccc1-c1ccc2[nH]nc(-c3nc4ccccc4[nH]3)c2c1 [Example 6, 3-(1H-Benzoimidazol-2-yl)-5-(2-fluorophenyl)-1H-Indazole] | 160 | 200 | 53 |  |
| Cc1c(-c2cccnc2)cncc1-c1ccc2[nH]nc(-c3nc4ccccc4[nH]3)c2c1 [Example 58] | 1 | 6.7 | 20.3 | 3000 |
| OCc1cccc2[nH]c(-c3n[nH]c4ccc(-c5cncc6ccccc56)cc34)nc12 [Example 29, [2-(5-Isoquinolin-4-yl-1H-indazol-3-yl)-1H-benzoimidazol-4-yl]-methanol] | 0.47 | 7.7 |  | 2200 |
| Cc1c(-c2cccc(CO)c2)cncc1-c1ccc2[nH]nc(-c3nc4ccccc4[nH]3)c2c1 [Example 69, (3-{5-[3-(1H-Benzoimidazol-2-yl)-1H-indazol-5-yl]-4-methyl-pyridin-3-yl}-phenyl)-methanol] | 4.1 | 15 | 25.6 |  |
| Cc1c(O)cccc1-c1ccc2[nH]nc(/C=C/c3ccccc3)c2c1 [15′, 2-Methyl-3-[3-((E)-styryl)-1H-indazol-5-yl]-phenol] | 62 | 18 | 87 |  |
| Clc1ccncc1-c1ccc2[nH]nc(-c3nc4ccccc4[nH]3)c2c1 [Example 52, 3-(1H-Benzoimidazol-2-yl)-5-(4-chloro-pyridin-3-yl)-1H-indazole] | 2.6 | 3.5 | 55 |  |
| CCc1c(-c2ccncc2)cncc1-c1ccc2[nH]nc(-c3nc4ccccc4[nH]3)c2c1 [Example 61, 5-[3-(1H-Benzoimidazol-2yl)-1H-indazol-5-yl]-4ethyl-[3,4′]bipyridinyl] | 1.2 | 17 | 60.7 | 480 |
| Cc1c(CO)cncc1-c1ccc2[nH]nc(-c3nc4ccccc4[nH]3)c2c1 [Example 72, {5-[3-(1H-Benzoimidazol-2-yl)-1H-indazol-5-yl]-4-methyl-pyridin-3-yl}-methanol] | 7.6 | 12 | 48.6 |  |
| Cc1c(/C=C/CO)cncc1-c1ccc2[nH]nc(-c3nc4ccccc4[nH]3)c2c1 [Example 59, (E)-3-{5-[3-(1H-Benzoimidazol-2-yl)-1H-indazol-5-yl]-4-methyl-pyridin-3-yl}-prop-2-en-1-ol] | 0.58 | 1.6 | 47.6 |  |
| O=C(Nc1cccc2c(-c3ccc4[nH]nc(-c5nc6ccccc6[nH]5)c4c3)cncc12)c1cccnc1 [Example 55, N-{4-[3-(1H-Benzoimidazol-2-yl)-1H-indazol-5-yl]-isoquinolin-8-yl}-nicotinamide] | 1.1 | 41 | 83.6 |  |
| Cc1c(CCCO)cncc1-c1ccc2[nH]nc(-c3nc4ccccc4[nH]3)c2c1 [Example 60, (E)-3-{5-[3-(1H-Benzoimidazol-2-yl)-1H-indazol-5-yl]-4-methyl-pyridin-3-yl}-propan-1-ol] | 0.6 | 1.6 | 40.8 |  |
| Cc1c(O)cccc1-c1ccc2[nH]nc(-c3nc4ccccc4[nH]3)c2c1 [10′, 3-[3-(1H-Benzoimidazol-2-yl)-1H-indazol-5-yl]-2-methyl-phenol] | 33 | 74 | 61 |  |
| C(=C\c1n[nH]c2ccc(-c3cncc4ccccc34)cc12)/c1ccccc1 [Example 16] | 15 | 35 |  | 1000 |
